Results: patent US6887890B2, “Compounds exhibiting thrombopoietin-like activities” (Chugai Seiyaku Kabushiki Kaisha, priority 2000, dated 2005)

Test system: Mpl-expressing Ba/F3 cell line (human mpl gene)
Experiment: Measurement of thrombopoietin (TPO) activity: viable cell count of Mpl-expressing Ba/F3 cell line (Cell Count Reagent SF, absorbance 450 nm)
Type: cell-based
Conditions: for Concentration: concentration corresponding to the maximum TPO activity value; for TPO activity: maximum TPO activity value, ODt/ODs×100 relative to maximum reaction of human TPO, Mpl-expressing Ba/F3 cells cultured at 37° C. for one day, at the concentration given
Method: The TPO activities of the compounds of the invention obtained in the aforementioned examples were measured by the procedure described below, for evaluation of their thrombopoietic effects.
Establishment of Mpl-expressing Ba/F3 Cell Line
The human mpl gene was cloned from cDNAs of the human erythroleukemia cell line HEL by PCR, and was incorporated into pCOS1 to construct an expression vector. The expression vector was transfected into Ba/F3 cells by electroporation method, and an Mpl-expressing Ba/F3 clone was established.
Measurement of Thrombopoietin (TPO) Activity
The cytokine-eliminated Mpl-expressing Ba/F3 line was plated in a 96-well plate at 25,000 cells/well. DMSO solutions containing the compounds obtained in each of the examples were then prepared to different specified concentration ranges, and each solution was added to the Mpl-expressing Ba/F3 cell line (final DMSO concentration: ≦0.1%), and the cell were cultured at 37° C. for one day. Human TPO (by R&D Systems or Genzyme) was used as a positive control.
Each of the cultured Mpl-expressing Ba/F3 cell lines was subjected to absorbance measurement at a wavelength of 450 nm (reference wavelength: 620 nm), corresponding to the viable cell count, using Cell Count Reagent SF (by Nacalai Tesque Inc.). The TPO activity of each compound for the Mpl-expressing Ba/F3 cell line was determined based on the following formula. TPO activity (%)=ODt/ODs×100
ODs: Absorbance at maximum reaction of human TPO (wavelength: 450-620 nm).
ODt: Absorbance of test solution (wavelength: 450-620 nm).
Tables 1 and 2 show the maximum TPO activity values and the corresponding concentrations of each compound, as obtained by the test described above.

Compound	Concentration	TPO activity
Cl.NCCCC[C@H](NC(=O)Cc1ccc(O)cc1)C(=O)Nc1ccc(C(c2ccc(NC(=O)[C@H](CCCCN)NC(=O)Cc3ccc(O)cc3)cc2)c2ccc(NC(=O)[C@H](CCCCN)NC(=O)Cc3ccc(O)cc3)cc2)cc1 [Example 19, tris[4-[N-α-[2-(4-hydroxyphenyl)acetyl]-L-lysyl]aminophenyl]methane hydrochloride]	50 µM	19.1%
Cl.NCCCC[C@@H](NC(=O)[C@H](N)Cc1ccc(O)cc1)C(=O)Nc1ccc(C(c2ccc(NC(=O)[C@@H](CCCCN)NC(=O)[C@H](N)Cc3ccc(O)cc3)cc2)c2ccc(NC(=O)[C@@H](CCCCN)NC(=O)[C@H](N)Cc3ccc(O)cc3)cc2)cc1 [Example 160, tris[4-[N-α-(D-tyrosyl)-D-lysyl]aminophenyl]methane hydrochloride]	100 µM	22.5%
